Assay results taken from patent US12559506B2, “Indazole based compounds and associated methods of use” (Arvinas Operations, Inc., priority 2021, dated 2026).
Read-outs that look alike come from different tables or passages of the source.

Target: T1, LRRK2 (endogenous, HiBit tagged) (Homo sapiens, UniProt Q5S007)
T1 construct: endogenous in cells; host or cells: HEK293 cells with HiBit knock-in at the endogenous LRRK2 locus, stably expressing firefly luciferase
Experiment: Endogenous LRRK2 degradation assay, endogenous gene C-terminally HiBit-tagged in HEK293 cells (Nano-Glo Dual Luciferase)
Type: cell-based
In short: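 LRRK2-HiBit quantified via Nano-Glo Dual Luciferase in HEK293 knock-in cells co-expressing firefly luciferase, after 24 h exposure to compound (1 μM final top, 1:3, 11 points). Values normalised to DMSO median per plate and curve-fitted; Alamar Blue viability run alongside.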

[1] = endogenous HiBit-tagged LRRK2 in HEK293 cells, 24 hours treatment, read-out: **Endogenous WT Dmax (%)
[2] = endogenous HiBit-tagged LRRK2 in HEK293 cells, 24 hours treatment, read-out: *Endogenous WT DC50
[3] = endogenous HiBit-tagged LRRK2 in HEK293 cells, 24 hours treatment, read-out: Endogenous WT DC50
[4] = endogenous HiBit-tagged LRRK2 in HEK293 cells, 24 hours treatment, read-out: Endogenous WT Dmax
[5] = endogenous HiBit-tagged LRRK2, HEK293 cells, 24 hours, read-out: **Endogenous WT Dmax (%)
[6] = endogenous HiBit-tagged LRRK2, HEK293 cells, 24 hours, read-out: *Endogenous WT DC50

T1 sequence (Q5S007 whole entry): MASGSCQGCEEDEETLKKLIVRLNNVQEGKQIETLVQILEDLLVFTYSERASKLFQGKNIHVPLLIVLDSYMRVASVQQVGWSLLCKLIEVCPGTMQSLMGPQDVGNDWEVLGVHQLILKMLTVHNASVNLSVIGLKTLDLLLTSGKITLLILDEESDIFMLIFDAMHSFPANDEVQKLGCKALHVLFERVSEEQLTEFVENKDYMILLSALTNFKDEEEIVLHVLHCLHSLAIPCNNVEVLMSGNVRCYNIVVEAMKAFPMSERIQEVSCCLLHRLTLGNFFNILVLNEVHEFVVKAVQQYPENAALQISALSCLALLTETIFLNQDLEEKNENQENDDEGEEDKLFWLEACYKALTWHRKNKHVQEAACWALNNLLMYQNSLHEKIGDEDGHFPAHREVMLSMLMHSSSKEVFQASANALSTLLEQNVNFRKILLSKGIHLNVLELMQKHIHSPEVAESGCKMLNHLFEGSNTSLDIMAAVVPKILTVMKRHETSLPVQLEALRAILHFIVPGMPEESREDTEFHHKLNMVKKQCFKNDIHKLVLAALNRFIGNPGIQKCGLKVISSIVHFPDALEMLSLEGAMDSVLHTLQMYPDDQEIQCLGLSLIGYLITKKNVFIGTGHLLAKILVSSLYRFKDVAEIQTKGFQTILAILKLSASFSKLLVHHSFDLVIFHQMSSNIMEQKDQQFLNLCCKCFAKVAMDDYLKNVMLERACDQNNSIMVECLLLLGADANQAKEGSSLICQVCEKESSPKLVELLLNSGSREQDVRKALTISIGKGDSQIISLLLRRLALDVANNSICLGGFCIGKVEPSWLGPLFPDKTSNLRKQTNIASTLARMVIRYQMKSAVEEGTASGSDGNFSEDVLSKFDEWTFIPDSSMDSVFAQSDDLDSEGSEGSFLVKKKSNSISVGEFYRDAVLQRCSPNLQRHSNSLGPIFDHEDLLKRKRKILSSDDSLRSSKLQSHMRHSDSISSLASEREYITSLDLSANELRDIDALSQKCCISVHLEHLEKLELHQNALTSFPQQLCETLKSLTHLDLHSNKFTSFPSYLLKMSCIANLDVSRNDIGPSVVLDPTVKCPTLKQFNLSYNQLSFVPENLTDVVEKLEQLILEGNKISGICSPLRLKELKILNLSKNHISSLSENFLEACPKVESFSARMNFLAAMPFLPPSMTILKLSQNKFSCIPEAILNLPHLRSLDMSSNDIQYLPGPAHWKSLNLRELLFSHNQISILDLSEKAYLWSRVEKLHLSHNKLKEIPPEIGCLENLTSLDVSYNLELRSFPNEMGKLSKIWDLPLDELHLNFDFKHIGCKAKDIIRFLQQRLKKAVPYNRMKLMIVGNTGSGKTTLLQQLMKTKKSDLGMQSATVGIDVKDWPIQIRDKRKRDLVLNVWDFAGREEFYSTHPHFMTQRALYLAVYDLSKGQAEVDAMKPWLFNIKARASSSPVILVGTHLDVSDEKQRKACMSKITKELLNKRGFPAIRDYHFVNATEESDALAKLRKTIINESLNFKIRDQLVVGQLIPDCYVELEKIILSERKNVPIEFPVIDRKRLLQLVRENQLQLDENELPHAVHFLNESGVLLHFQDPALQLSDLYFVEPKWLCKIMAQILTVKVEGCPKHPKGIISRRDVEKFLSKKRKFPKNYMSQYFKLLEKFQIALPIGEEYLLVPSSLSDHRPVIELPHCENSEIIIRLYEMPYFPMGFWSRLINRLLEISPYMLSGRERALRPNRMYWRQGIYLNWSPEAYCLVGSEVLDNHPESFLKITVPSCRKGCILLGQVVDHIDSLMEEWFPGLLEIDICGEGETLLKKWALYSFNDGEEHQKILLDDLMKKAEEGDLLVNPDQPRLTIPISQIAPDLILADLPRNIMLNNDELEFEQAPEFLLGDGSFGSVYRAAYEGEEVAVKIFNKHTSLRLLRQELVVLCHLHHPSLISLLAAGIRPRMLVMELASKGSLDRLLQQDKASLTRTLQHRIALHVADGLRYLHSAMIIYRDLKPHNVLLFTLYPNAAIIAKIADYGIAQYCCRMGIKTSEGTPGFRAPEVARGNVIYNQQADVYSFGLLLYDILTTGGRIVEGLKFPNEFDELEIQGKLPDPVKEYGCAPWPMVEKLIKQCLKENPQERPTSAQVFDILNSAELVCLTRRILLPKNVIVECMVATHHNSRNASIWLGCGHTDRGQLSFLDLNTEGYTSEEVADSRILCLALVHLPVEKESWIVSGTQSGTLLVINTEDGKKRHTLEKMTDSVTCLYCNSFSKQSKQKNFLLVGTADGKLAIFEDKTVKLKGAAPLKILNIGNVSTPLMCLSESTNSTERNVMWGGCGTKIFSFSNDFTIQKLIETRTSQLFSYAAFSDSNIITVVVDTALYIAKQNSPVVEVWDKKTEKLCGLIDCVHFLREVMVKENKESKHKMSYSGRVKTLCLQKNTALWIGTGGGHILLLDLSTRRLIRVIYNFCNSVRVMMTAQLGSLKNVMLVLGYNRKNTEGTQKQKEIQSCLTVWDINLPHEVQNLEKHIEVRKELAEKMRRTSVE

Dmax [1] [%] | DC50 [2] [nM] | DC50 [3] [nM] | Dmax [4] [%] | Structure (SMILES) | further results
50 to 70 | < 10 | – | – | COc1c(N2CCN(C[C@H]3C[C@H](OC4CCN(c5cc(-c6[nH]nc7ccc(OC8(C)CC8)cc67)ncn5)CC4)C3)CC2)ccc2c1CN(C1CCC(=O)NC1=O)C2=O (some centres unmarked) [Compound 314, 3-[4-methoxy-1-oxo-5-(4-{[(1r,3r)-3-[(1-{6-[5-(1-methylcyclopropoxy)-2H-indazol-3-yl]pyrimidin-4-yl}piperidin-4-yl)oxy]cyclobutyl]methyl}piperazin-1-yl)-2,3-dihydro-1H-isoindol-2-yl]piperidine-2,6-dione] | –
– | – | < 10 | 50 to 70 | COc1c(N2CCC(CN3CCN(CC4CCN(c5cc(-c6n[nH]c7ccc(OC8(C)CC8)cc67)ncn5)CC4)[C@H](C)C3)CC2)ccc2c1CN(C1CCC(=O)NC1=O)C2=O (stereo partly drawn) [Compound 255, 3-[4-methoxy-5-(4-{[(3R)-3-methyl-4-[(1-{6-[5-(1-methylcyclopropoxy)-1H-indazol-3-yl]pyrimidin-4-yl}piperidin-4-yl)methyl]piperazin-1-yl]methyl}piperidin-1-yl)-1-oxo-2,3-dihydro-1H-isoindol-2-yl]piperidine-2,6-dione] | –
– | – | < 10 | 50 to 70 | COc1c(N2CCC(O[C@H]3CC[C@H](CN4CCN(c5cc(-c6n[nH]c7cc(F)c(OC8(C)CC8)cc67)ncn5)CC4)CC3)CC2)ccc2c1CN(C1CCC(=O)NC1=O)C2=O (some centres unmarked) [Compound 360, 3-[4-methoxy-1-oxo-5-(4-{[(1r,4r)-4-[(4-{6-[6-fluoro-5-(1-methylcyclopropoxy)-1H-indazol-3-yl]pyrimidin-4-yl}piperazin-1-yl)methyl]cyclohexyl]oxy}piperidin-1-yl)-2,3-dihydro-1H-isoindol-2-yl]piperidine-2,6-dione] | –
50 to 70 | < 10 | – | – | COc1c(N2CC3(CCN([C@H]4C[C@H](OC5CCN(c6cc(-c7[nH]nc8ccc(OC9(C)CC9)cc78)ncn6)CC5)C4)CC3)C2)ccc2c1CN(C1CCC(=O)NC1=O)C2=O (some centres unmarked) [Compound 344, 3-(4-methoxy-1-oxo-5-{7-[(1r,3r)-3-[(1-{6-[5-(1-methylcyclopropoxy)-2H-indazol-3-yl]pyrimidin-4-yl}piperidin-4-yl)oxy]cyclobutyl]-2,7-diazaspiro[3.5]nonan-2-yl}-2,3-dihydro-1H-isoindol-2-yl)piperidine-2,6-dione] | –
– | – | < 10 | 50 to 70 | CC1(Oc2ccc3n[nH]c(-c4cc(N5CCC(O[C@H]6CC[C@H](CN7CCN(c8cc9c(cc8F)C(=O)N(C8CCC(=O)NC8=O)C9)CC7)CC6)CC5)ncn4)c3c2)CC1 (some centres unmarked) [Compound 208, 3-[6-fluoro-5-[4-[[4-[[1-[6-[5-(1-methylcyclopropoxy)-2H-indazol-3-yl]pyrimidin-4-yl]-4-piperidyl]oxy]cyclohexyl]methyl]piperazin-1-yl]-1-oxo-isoindolin-2-yl]piperidine-2,6-dione] | –
50 to 70 | < 10 | – | – | CC1(Oc2ccc3n[nH]c(-c4cc(N5CCC(O[C@H]6C[C@H](N7CC8(CCN(c9ccc%10c(c9F)CN(C9CCC(=O)NC9=O)C%10=O)CC8)C7)C6)CC5)ncn4)c3c2)CC1 (some centres unmarked) [Compound 335, 3-(4-fluoro-1-oxo-5-{2-[(1r,3r)-3-[(1-{6-[5-(1-methylcyclopropoxy)-2H-indazol-3-yl]pyrimidin-4-yl}piperidin-4-yl)oxy]cyclobutyl]-2,7-diazaspiro[3.5]nonan-7-yl}-2,3-dihydro-1H-isoindol-2-yl)piperidine-2,6-dione] | –

More lines, now with the values behind:

Structure (SMILES) | Dmax [1] [%] | DC50 [2] [nM] | DC50 [3] [nM] | Dmax [4] [%] | further results
CC1(Oc2ccc3[nH]nc(-c4cc(N5CCC(CN6CCN(C[C@@H]7CCN(c8ccc9c(c8F)CN(C8CCC(=O)NC8=O)C9=O)C7)CC6)CC5)ncn4)c3c2)CC1 (stereo partly drawn) [Compound 321, 3-{4-fluoro-5-[(3S)-3-({4-[(1-{6-[5-(1-methylcyclopropoxy)-1H-indazol-3-yl]pyrimidin-4-yl}piperidin-4-yl)methyl]piperazin-1-yl}methyl)pyrrolidin-1-yl]-1-oxo-2,3-dihydro-1H-isoindol-2-yl}piperidine-2,6-dione] | 50 to 70 | < 10 | – | – | –
COc1cc(N2CCC(CN3CCC(F)(CN4CCN(c5cc(-c6n[nH]c7ccc(OC8(C)CC8)cc67)ncn5)CC4)CC3)CC2)cc2c1C(=O)N(C1CCC(=O)NC1=O)C2 (centres unmarked) [Compound 216, 3-{5-[4-({4-fluoro-4-[(4-{6-[5-(1-methylcyclopropoxy)-1H-indazol-3-yl]pyrimidin-4-yl}piperazin-1-yl)methyl]piperidin-1-yl}methyl)piperidin-1-yl]-7-methoxy-1-oxo-2,3-dihydro-1H-isoindol-2-yl}piperidine-2,6-dione] | – | – | < 10 | ≥ 70 | –
C[C@@H]1CN(CC2CCN(c3cc(-c4n[nH]c5cnc(OC6(C)CC6)cc45)ncn3)CC2)CCN1CC1CCN(c2ccc3c(c2F)CN(C2CCC(=O)NC2=O)C3=O)CC1 (stereo partly drawn) [Compound 272, 3-[4-fluoro-5-(4-{[(2R)-2-methyl-4-[(1-{6-[5-(1-methylcyclopropoxy)-1H-pyrazolo[3,4-c]pyridin-3-yl]pyrimidin-4-yl}piperidin-4-yl)methyl]piperazin-1-yl]methyl}piperidin-1-yl)-1-oxo-2,3-dihydro-1H-isoindol-2-yl]piperidine-2,6-dione] | 50 to 70 | < 10 | – | – | –
COc1c(N2CCC(CN3CCN(CC4CCN(c5cc(-c6n[nH]c7cnc(OC8(C)CC8)cc67)ncn5)CC4)C[C@@H]3C)CC2)ccc2c1CN(C1CCC(=O)NC1=O)C2=O (stereo partly drawn) [Compound 271, 3-[4-methoxy-5-(4-{[(2S)-2-methyl-4-[(1-{6-[5-(1-methylcyclopropoxy)-1H-pyrazolo[3,4-c]pyridin-3-yl]pyrimidin-4-yl}piperidin-4-yl)methyl]piperazin-1-yl]methyl}piperidin-1-yl)-1-oxo-2,3-dihydro-1H-isoindol-2-yl]piperidine-2,6-dione] | 50 to 70 | < 10 | – | – | –
CC1(Oc2cc3c(-c4cc(N5CCC(CC6(F)CCN(CC7CCN(c8ccc9c(c8F)CN(C8CCC(=O)NC8=O)C9=O)CC7)CC6)CC5)ncn4)n[nH]c3cc2F)CC1 (centres unmarked) [Compound 207, 3-[4-fluoro-5-[4-[[4-fluoro-4-[[1-[6-[6-fluoro-5-(1-methylcyclopropoxy)-1H-indazol-3-yl]pyrimidin-4-yl]-4-piperidyl]methyl]-1-piperidyl]methyl]-1-piperidyl]-1-oxo-isoindolin-2-yl]piperidine-2,6-dione] | – | – | 10 to 50 | 50 to 70 | –
COc1cc2c(cc1N1CCC(CN3CCN(CC4CCN(c5cc(-c6n[nH]c7ccc(OC8(C)CC8)cc67)ncn5)CC4)CC3)CC1)CN(C1CCC(=O)NC1=O)C2=O (centres unmarked) [Compound 194, 3-[6-methoxy-5-[4-[[4-[[1-[6-[5-(1-methylcyclopropoxy)-1H-indazol-3-yl]pyrimidin-4-yl]-4-piperidyl]methyl]piperazin-1-yl]methyl]-1-piperidyl]-1-oxo-isoindolin-2-yl]piperidine-2,6-dione] | – | – | – | – | Dmax [5]: ≥ 70%; DC50 [6]: < 10 nM
CC1(Oc2ccc3[nH]nc(-c4cc(N5CCC(CN6CCC(F)(CC7CCN(c8c(F)cc9c(c8F)CN(C8CCC(=O)NC8=O)C9=O)CC7)CC6)CC5)ncn4)c3c2)CC1 (centres unmarked) [Compound 242, 3-{4,6-difluoro-5-[4-({4-fluoro-1-[(1-{6-[5-(1-methylcyclopropoxy)-1H-indazol-3-yl]pyrimidin-4-yl}piperidin-4-yl)methyl]piperidin-4-yl}methyl)piperidin-1-yl]-1-oxo-2,3-dihydro-1H-isoindol-2-yl}piperidine-2,6-dione] | – | – | < 10 | 50 to 70 | –
Cc1cc(-c2n[nH]c3ccc(OC4(C)CC4)nc23)cc(N2CCC(O[C@H]3CC[C@H](CN4CCN(c5ccc6c(c5F)CN(C5CCC(=O)NC5=O)C6=O)CC4)CC3)CC2)n1 (some centres unmarked) [Compound 371, 3-[4-fluoro-1-oxo-5-(4-{[(1r,4r)-4-[(1-{6-methyl-4-[5-(1-methylcyclopropoxy)-1H-pyrazolo[4,3-b]pyridin-3-yl]pyridin-2-yl}piperidin-4-yl)oxy]cyclohexyl]methyl}piperazin-1-yl)-2,3-dihydro-1H-isoindol-2-yl]piperidine-2,6-dione] | – | – | < 10 | 50 to 70 | –
CC1(Oc2ccc3[nH]nc(-c4ccnc(N5CCC(O[C@H]6CC[C@H](CN7CCN(c8ccc9c(c8F)CN(C8CCC(=O)NC8=O)C9=O)CC7)CC6)CC5)c4)c3c2)CC1 (some centres unmarked) [Compound 354, 3-(4-fluoro-5-(4-(((1r,4r)-4-((1-(4-(5-(1-methylcyclopropoxy)-1H-indazol-3-yl)pyridin-2-yl)piperidin-4-yl)oxy)cyclohexyl)methyl)piperazin-1-yl)-1-oxoisoindolin-2-yl)piperidine-2,6-dione] | 50 to 70 | < 10 | – | – | –
C[C@H]1CN(c2cc(-c3n[nH]c4cc(F)c(OC5(C)CC5)cc34)ncn2)CCN1CC1(F)CCN(CC2CCN(c3ccc4c(c3F)CN(C3CCC(=O)NC3=O)C4=O)CC2)CC1 (stereo partly drawn) [Compound 192, 3-[4-fluoro-5-[4-[[4-fluoro-4-[[(2S)-4-[6-[6-fluoro-5-(1-methylcyclopropoxy)-1H-indazol-3-yl]pyrimidin-4-yl]-2-methyl-piperazin-1-yl]methyl]-1-piperidyl]methyl]-1-piperidyl]-1-oxo-isoindolin-2-yl]piperidine-2,6-dione] | – | – | – | – | Dmax [5]: ≥ 70%; DC50 [6]: < 10 nM
